Laboratory results as given in patent US8592422B2, “Bicyclic triazole and pyrazole lactams as allosteric modulators of mGluR5 receptors” (Vanderbilt University, priority 2010, dated 2013).

Target: T1, human mGluR5a receptor (Homo sapiens, UniProt P41594)
T1 construct: cDNA subcloned into pcDNA3.1(-)
Assay: Cell-based functional Ca2+ mobilization assay (FDSS), potentiation of glutamate EC20 response
Details: for pEC50 / EC50: HEK cells transfected with human mGluR5 (H10H or H12H), in presence of EC20 glutamate; for EC50: read-out: EC50; for Emax (%) / Emax: maximum % effect in concentration-response curve, as percent of response to maximally effective glutamate
Method: Human embryonic kidney (HEK) cells transfected with rat mGluR5 were plated in clear bottom assay plates for assay in a Functional Drug Screening System (FDSS). In the alternative assay, HEK cells transfected with human mGluR5 were plated for assay in the FDSS. In some cases the HEK cells transfected with human mGluR5 were the H10H cell line. Alternatively, the HEK cells transfected with human mGluR5 were the H12H cell line. […] The cells were loaded with a Ca^2+-sensitive fluorescent dye (e.g., Fluo-4), and the plates were washed and placed in the FDSS instrument. After establishment of a fluorescence baseline for twelve seconds, the compounds of the present invention were added to the cells, and the response in cells was measured. Alternatively, in various further aspects, after establishment of a fluorescence baseline for about three seconds, the compounds of the present invention were added to the cells, and the response in cells was measured. Five minutes later, an mGluR5 agonist (e.g., glutamate, 3,5-dihydroxyphenylglycine, or quisqualate) was added to the cells, and the response of the cells was measured.
The above described assay operated in two modes. In the first mode, a range of concentrations of the present compounds were added to cells, followed by a single fixed concentration of agonist. If a compound acted as a potentiator, an EC50 value for potentiation and a maximum extent of potentiation by the compound at this concentration of agonist was determined by non-linear curve fitting. In the second mode, several fixed concentrations of the present compounds were added to various wells on a plate, followed by a range of concentrations of agonist for each concentration of present compound; the EC50 values for the agonist at each concentration of compound were determined by non-linear curve fitting. A decrease in the EC50 value of the agonist with increasing concentrations of the present compounds (a leftward shift of the agonist concentration-response curve) is an indication of the degree of mGluR5 potentiation at a given concentration of the present compound. An increase in the EC50 value of the agonist with increasing concentrations of the present compounds (a rightward shift of the agonist concentration-response curve) is an indication of the degree of mGluR5 antagonism at a given concentration of the present compound. The second mode also indicates whether the present compounds also affect the maximum response to mGluR5 to agonists.
The mGluR5 activity was determined using the metabotropic glutamate receptor activity assays in human embryonic kidney cells as described herein, wherein the human embryonic kidney cells were transfected with human mGluR5. The compounds in Table 1 were synthesized with methods identical or analogous to those shown herein. The requisite starting materials were commercially available, described in the literature, or readily synthesized by one skilled in the art of organic synthesis. The compound number given in Table I corresponds to the compound number in Table II and the structure given therein.
Human mGluR5a cDNA in pCMV6-XL6 mammalian expression plasmid was purchased from OriGene Technologies, Inc. (catalogue number SC326357) and subcloned into pcDNA3.1(−). Human embryonic kidney (HEK) 293A cells were then transfected with human mGluR5a pcDNA3.1(−) using LipofectAmine-2000 (Invitrogen) and monoclones were selected and tested for functional response using a Ca^2+ mobilization assay. Monoclones were named for the species (“H” for human) plus the location on the plate (e.g. “10H”).
HEK cells transfected with the human mGluR5a receptor (H10H or H12H cell line) were plated at 15,000 cells/well in clear-bottomed poly-D-lysine-coated assay plates (BD Falcon) in glutamate-glutamine-free growth medium and incubated overnight at 37° C. and 5% CO2.

T1 sequence (P41594 21-1180 isoform P41594-2 limits assumed): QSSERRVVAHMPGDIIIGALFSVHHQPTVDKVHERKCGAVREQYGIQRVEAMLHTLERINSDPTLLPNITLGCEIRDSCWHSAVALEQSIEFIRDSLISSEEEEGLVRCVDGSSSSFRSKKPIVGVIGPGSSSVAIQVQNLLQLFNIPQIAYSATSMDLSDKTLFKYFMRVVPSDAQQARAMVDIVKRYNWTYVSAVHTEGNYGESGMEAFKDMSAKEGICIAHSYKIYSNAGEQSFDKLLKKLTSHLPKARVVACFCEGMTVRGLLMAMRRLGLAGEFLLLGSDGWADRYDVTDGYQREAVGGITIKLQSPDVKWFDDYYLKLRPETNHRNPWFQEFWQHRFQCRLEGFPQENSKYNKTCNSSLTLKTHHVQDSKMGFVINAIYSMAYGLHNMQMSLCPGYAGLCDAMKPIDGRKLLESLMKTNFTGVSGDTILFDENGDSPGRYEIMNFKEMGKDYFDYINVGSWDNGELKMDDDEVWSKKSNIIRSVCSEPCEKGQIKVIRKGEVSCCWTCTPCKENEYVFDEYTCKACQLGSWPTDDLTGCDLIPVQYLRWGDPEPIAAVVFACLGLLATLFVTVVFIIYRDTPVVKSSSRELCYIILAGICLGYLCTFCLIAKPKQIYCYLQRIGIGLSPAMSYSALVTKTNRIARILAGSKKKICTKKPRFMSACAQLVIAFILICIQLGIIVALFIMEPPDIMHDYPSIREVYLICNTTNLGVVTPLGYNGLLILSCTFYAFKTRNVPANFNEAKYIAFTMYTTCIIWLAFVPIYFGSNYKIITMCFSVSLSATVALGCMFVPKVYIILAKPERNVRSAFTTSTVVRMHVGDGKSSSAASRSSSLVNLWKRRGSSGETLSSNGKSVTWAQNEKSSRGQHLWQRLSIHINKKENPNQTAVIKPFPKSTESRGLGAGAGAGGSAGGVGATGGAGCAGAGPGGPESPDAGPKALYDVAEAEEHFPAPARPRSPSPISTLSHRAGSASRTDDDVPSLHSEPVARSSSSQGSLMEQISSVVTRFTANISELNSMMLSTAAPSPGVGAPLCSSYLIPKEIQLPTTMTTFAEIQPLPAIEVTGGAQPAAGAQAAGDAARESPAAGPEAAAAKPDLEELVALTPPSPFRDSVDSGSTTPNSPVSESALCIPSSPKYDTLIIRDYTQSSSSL

Structure (SMILES)	pEC50	EC50 [nM]	Emax (%)	Emax [%]
CC(C)c1cccc(N2CCn3nc(COc4ccccn4)cc3C2=O)n1 [Example 207]	6.36	437	69	
COc1cncc(N2CCn3nc(COc4ccc(F)cc4)cc3C2=O)n1 [Example 231]	6.92	110	67	
COc1nc(N2CCn3nc(COc4ccccc4)cc3C2=O)ncc1F [Example 91]	7.19	65	71	
CNc1ccnc(N2CCn3nc(COc4ccccc4)cc3C2=O)n1 [Example 277]	6.03	933	63	
O=C1c2cc(COc3ccccc3)nn2C(CF)CN1c1ccc(F)cc1 (racemic) [Example 264]	6.95	112	63	
Cc1cccc(OCc2cc3n(n2)CC(C)N(c2ccc(F)cc2)C3=O)c1 (stereo not shown) [Example 243]	7.05	89	68	
COc1nc(N2C(=O)c3cc(COc4ccccc4)nn3CC2C)ncc1F (stereo not shown) [Example 147]	6.27	537	72	
COc1ccc(N2CCn3nc(COc4ccccc4)cc3C2=O)cc1 [Example 50]	6.92	120	58	
Cn1cncc1N1CCn2nc(COc3ccccc3)cc2C1=O [Example 352]	<5.00	> 10000	55	
COc1ncncc1N1CCn2nc(COc3ccccc3)cc2C1=O [Example 113]		724		57
COC[C@@H]1Cn2nc(COc3ccccc3)cc2C(=O)N1c1ccc(F)cc1 [Example 270]		> 10000		39
CN1CCn2nc(COc3ccccc3)cc2C1=O [Example 2]	5.87	1350	72	
Cc1ccc2ccc(N3CCn4nc(COc5ccccc5)cc4C3=O)cc2n1 [Example 369]	6.64	230	68	
COc1cc(N2CCn3nc(COc4ccccc4)cc3C2=O)ccc1F [Example 51]	7.26	55	61	
Cc1cccc(OCc2cc3n(n2)CCN(c2ccc(F)cn2)C3=O)c1 [Example 177]	6.42	380	61	
CN(C)c1ccnc(N2CCn3nc(COc4ccccc4)cc3C2=O)n1 [Example 276]	5.90	1260	68	
Cc1c(COc2ccccc2)nn2c1C(=O)N(CC1CC1)CC2 [Example 261]		> 30200		23
COc1nccc(N2C(=O)c3cc(COc4ccccc4)nn3CC2C)n1 (stereo not shown) [Example 145]	5.85	1410	59	
COc1cncc(N2CCn3nc(COc4ccccc4)cc3C2=O)n1 [Example 112]	6.98	105	69	
O=C1NCCn2nc(COc3ccccc3)cc21 [Example 1]	5.65	2240	69	
CC1CN(c2ccc(F)cc2)C(=O)c2cc(COc3ccccn3)nn21 (single isomer, unassigned) [Example 240]	<4.52	> 30200	23	
CC1Cn2nc(COc3cccc(F)c3)cc2C(=O)N1c1ccc(F)cc1 (stereo not shown) [Example 244]	7.25	56	78	
Cc1cccc(N2C(=O)c3cc(COc4ccccc4)nn3CC2C)c1 (stereo not shown) [Example 153]	7.22	60	71	
CC(Oc1ccccc1)c1cc2n(n1)CCN(CC1CC1)C2=O (racemic) [Example 257]	<4.52	> 30200	25	

Structure (SMILES)	pEC50	EC50 [nM]	Emax (%)	Emax [%]
O=C1c2cc(COc3ccccc3)nn2CC(CO)N1c1ccc(F)cc1 (stereo not shown) [Example 268]	<5.00	> 10000	27	
COc1ccc(C)c(N2CCn3nc(COc4ccccc4)cc3C2=O)n1 [Example 109]	7.13	74	63	
COc1nccc(N2CCn3nc(COc4ccccn4)cc3C2=O)n1 [Example 210]		2140		50
COc1cnc(C)nc1N1CCn2nc(COc3ccccc3)cc2C1=O [Example 119]		2300		72
COc1nc(N2CCn3nc(COc4ccccc4)cc3C2=O)ccc1F [Example 73]	7.64	23	67	
O=C1c2cc(COc3ccccc3)nn2CCN1c1ccc2cccnc2c1 [Example 360]		190		66
COc1cc(N2CCn3nc(COc4ccc(F)cc4)cc3C2=O)ccc1F [Example 228]		120		65
CNc1cccc(N2CCn3nc(COc4ccccc4)cc3C2=O)n1 [Example 278]		275		56
Cc1cnnc(N2CCn3nc(COc4ccccc4)cc3C2=O)c1 [Example 93]	<4.52	> 30200	29	
O=C1c2cc(COc3ccccc3)nn2CCN1c1ccc2nccc(Cl)c2c1 [Example 364]	7.34	46	75	
O=c1c2nc(COc3ccccc3)nn2ccn1-c1ccc(F)cc1 [Example 4]		617		52
COc1cc(N2CCn3nc(COc4ccccc4)cc3C2=O)nc(OC)n1 [Example 122]	6.91	120	61	
O=C1c2cc(COc3ccnnc3)nn2CCN1c1ccc(F)cc1 [Example 201]	<5.00	> 10000	46	
O=C1c2cc(COc3ccccn3)nn2CCN1CC1CC1 [Example 162]		2510		47
O=C1c2cc(COc3cccnc3)nn2CCN1c1ccc(F)cc1 [Example 158]		3090		69
N#Cc1cccc(OCc2cc3n(n2)CCN(CC2CC2)C3=O)c1 [Example 164]	<4.52	> 30200	28	
Cc1cc(OCc2cc3n(n2)CCN(c2ccc(F)cc2)C3=O)ncc1F [Example 180]	5.77	1700	53	
O=C1c2cc(COc3ccccc3)nn2CCN1c1ccncc1F [Example 29]	6.24	575	80	
O=C1c2cc(COc3ccccc3)nn2CCN1c1ccc2scnc2c1 [Example 361]	7.14	72	66	
Cc1cccc(OCc2cc3n(n2)CCN(CC2CC2)C3=O)c1 [Example 168]	5.18	6610	30	
CC1CNC(=O)c2cc(COc3ccccc3)nn21 (racemic) [Example 250]	<5.00	> 10000	52	
Cc1cc(OCc2cc3n(n2)CCN(c2ccc(F)cc2)C3=O)ncn1 [Example 196]	<5.00	> 10000	37	
O=C1c2cc(COc3ccccc3)nn2C(CO)CN1c1ccc(F)cc1 (racemic) [Example 263]	5.92	1200	87	
